Measurements reported in US5917053A, “Indole-2,3-dione-3-oxime derivatives, their preparation and use” (Neurosearch A/S, priority 1994, dated 1999).

What was measured:
[1] = test system: cultured mouse cerebral cortex neurons; assay: Inhibition of stimulated 3H-GABA release from cultured cerebral cortex neurons; type: cell-based; conditions: Cerebral cortex neuron, 37° C., pH 7.4, stimulated 30 sec every 4 min
Description: The compounds of the invention have also been tested for their ability to inhibit GABA release from cultured mouse cerebral cortex neurons using the following test:
Background: Neurons which express receptors for excitatory amino acids can be depolarized by such compounds and this depolarization will ultimately lead to a release of transmitter substance from the neurons. Cultured neurons obtained from 15-day-old mouse embryo cortex are mainly GABAergic and express all types of excitatory amino acid receptors. This means that they can be stimulated by high potassium or by the excitatory amino acids, NMDA, AMPA and kainate to release their neurotransmitter GABA.
^3 H-GABA may be used to label the GABA transmitter pool in the neurons and the release of ^3 H-GABA from the neurons may be used as a simple functional model for studies of the effects of excitatory amino acids and their antagonists.
Method: Cerebral cortices of 16-day-old mouse embryos are chopped in 0.4×0.4 mm cubes. The tissue is dissociated by mild trypsinization (0.1% (wt/vol) trypsin, 37° C., 15 min) and subsequently inoculated into poly-L-lysine-coated 3-cm Petri dishes containing a slightly modified DMEM (24.5 mM KCI, 30 mM glucose) supplemented with p-aminobenzoate (7 μM), insulin (100 mU/L) and 10% (vol/vol) horse serum. Cells are maintained in culture for 5-7 days with the addition of the antimitotic agent cytosine arbinoside (40 μM) from day 2 in vitro to prevent glial profileration. For further details and references, see Drejer et al. Exp. Brain Res. 47, 259 (1982).
Release experiments are performed using the model described by Drejer et al. Life Sci. 38, 2077 (1986). Cerebral cortex neurons cultured in Petri dishes (30 mm) are added 100 μM γ-vinyl-GABA one hour before the experiment in order to inhibit degradation of GABA in the neurons. 30 min before the experiment 5 μCi ^3 H-GABA is added to each culture and after this preloading period the cell monolayer at the bottom of the dish is covered with a piece of nylon mesh to protect the cells against mechanical damage and to facilitate dispersion of medium over the cell layer. The preloading medium is removed and the Petri dishes are placed in a superfusion system consisting of a peristaltic pump continously delivering thermostated 37° C. superfusion medium HEPES buffered saline (HBS): 10 mM HEPES, 135 mM NaCl, 5 mM KCl, 0.6 mM MgSO4, 1.0 mM CaCl2 and 6 mM D-glucose; pH 7.4) from a reservoir to the top of the slightly tilted Petri dish. The medium is continously collected from the lower part of the dish and delivered to a fraction collector. Initially, the cells are superfused with HBS for 15 min (flow rate 2 ml/min). Then the cells are stimulated for 30 sec every 4 min by changing the superfusion medium from HBS to a corresponding medium containing […].
Test subtances are dissolved in 50% DMSO, 48% ethanol. The final DMSO and ethanol concentration in the assay must not exceed 0.1%.
The stimulated release of ^3 H-GABA (cpm) are corrected for the mean basal release(cpm) before and after stimulation.
The stimulated release in the presence of antagonists are expressed relative to the stimulated release and the IC50 value for the antagonist is calculated (the concentration (μM) of the test substance which inhibit 50% of the stimulated ^3 H-GABA release).

AMPA receptor = AMPA receptor affinity (receptor binding, as described by T. Honore et al.); conditions: Neuroscience Letters 54, 27-32 (1985)
Description: In Vitro activity (receptor affinity):
The compounds of the present invention has been tested for their affinity for the AMPA receptor as described by T. Honore et al., Neuroscience Letters 54, 27-32 (1985). IC50 values appear from the following Table 1.

Gerbils = assay: Transient Forebrain Ischemia Model (2-VO Gerbils), global ischaemia, hippocampal damage; type: in vivo, gerbil; conditions: 30 mg/kg bolus i.v. followed by one hour infusion of 30 mg/kg (total 60 mg/kg) after 4 min occlusion; read four days later; Mann-Whitney Rank Sum Test
Procedure: The compound, 8-methyl-5-(4-(N,N-dimethylsulphamoyl)phenyl)-6,7,8,9-tetrahydro-1H-pyrrolo[3,2-h]isoquinoline-2,3-dione-3-O-(N-ethylcarbamoyl)oxime has also been tested in the following animal moder of global ischaemia:
Transient Forebrain Ischemia Model (2-VO Gerbils)
Gerbils were anaesthetized with halothane, right and left carotid arteries located and occluded for 4 minutes. Animals were kept warm before and after the operation using heating lamps. During the operation the gerbils were placed on heating plates, body temperature controlled and maintained at 37±0.5° C. Postocclusion, the gerbils were divided in two groups. One group received 30 mg/kg test compound as a bolus injection i.v. followed by a one hour infusion of 30 mg/kg test compound (total dose was 60 mg/kg). The control group received 0.9% NaCl in the same infusion volume as the treated group. Four days later, the animals were sacrificed, brains removed and cooled to -70° C. Thereafter, the brains were sectioned in […] thick sections of which 5-7 with hippocampal tissue were selected and stained with hematoxylin eosine (HE).
Based upon the degree of hippocampal damage, each hippocampus was categorised into one of four groups (Group 1: no damage in the CA1-layer; Group 2: the CA1-layer partly damaged; Group 3: the CA1-layer completely damaged; and Group 4: damage in more than just the CA1-layer). […]

Compound	IC50 [1] [nM]	IC50 (AMPA receptor) [nM]	neuroprotective effect in the gerbil 2-VO model (ischemic score, hippocampal damage) (Gerbils)
CCNC(=O)ON=C1C(=O)Nc2c1cc(-c1ccccc1)c1c2CN(C)CC1 [8-methyl-5-phenyl-6,7,8,9-tetrahydro-1H-pyrrolo[3,2-h]isoquinoline-2,3-dione-3-O-(N-ethylcarbamoyl)oxime]	1400	350	–
CCN1Cc2c(-c3ccccc3)cc3c(c2C1)NC(=O)C3=NOC(C)=O [7-ethyl-5-phenyl-1,6,7,8-tetrahydrobenzo[2,1-b:3,4-c]dipyrrole-2,3-dione 3-O-acetyloxime]	2700	1700	–
CN1CCc2c(-c3ccccc3)cc3c(c2C1)NC(=O)C3=NOC(=O)C(C)(C)C [8-methyl-5-phenyl-6,7,8,9-tetrahydro-1H-pyrrolo[3,2-h]isoquinoline-2,3-dione-3-O-pivaloyloxime]	> 3000	190	–

Now those with a lower IC50 (AMPA receptor), led by results:

IC50 [1] [nM]	IC50 (AMPA receptor) [nM]	Compound	neuroprotective effect in the gerbil 2-VO model (ischemic score, hippocampal damage) (Gerbils)
2900	150	CC(=O)ON=C1C(=O)Nc2c1cc(-c1ccccc1)c1c2CN(C)CC1 [8-methyl-5-phenyl-6,7,8,9-tetrahydro-1H-pyrrolo[3,2-h]isoquinoline-2,3-dione-3-O-acetyloxime]	–
190	38	CCNC(=O)ON=C1C(=O)Nc2c1cc(-c1ccc(S(=O)(=O)N(C)C)cc1)c1c2CN(C)CC1 [8-methyl-5-(4-(N,N-dimethylsulphamoyl)phenyl)-6,7,8,9-tetrahydro-1H-pyrrolo[3,2-h]isoquinoline-2,3-dione-3-O-(N-ethylcarbamoyl)oxime]	significant neuroprotective effect
–	14	CN1CCc2c(-c3ccc(S(=O)(=O)N(C)C)cc3)cc3c(c2C1)NC(=O)C3=NOC(=O)NC1CCCCC1 [8-methyl-5-(4-(N,N-dimethylsulphamoyl)phenyl)-6,7,8,9-tetrahydro-1H-pyrrolo[3,2-h]isoquinoline-2,3-dione-3-O-(N-cyclohexylcarbamoyl)oxime]	–
